This note sets out measurements from US8471005B2 (Cephalon, Inc., priority 2008, dated 2013).

In assay [1] the target is T1, JAK2 (Homo sapiens, UniProt O60674).
T1 construct: host or cells: baculovirus expression system
As to the kind of experiment: Recombinant Human JAK2 Kinase Assay (TRF). The format is biochemical. Particulars: read-out: JAK2 Potency. An outline of the steps: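 Kinase activity of baculovirus-expressed JAK2 is followed on a surface-immobilised biotinylated peptide, with the reaction run for 20 min at room temperature in buffer containing 0.2 μM ATP and manganese. Phosphorylation is read with Eu-N1 PY100 antibody.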

For assay [2], the target named is T2, ALK (Homo sapiens, UniProt Q9UM73).
T2 construct: host or cells: baculovirus expression system
T2 sequence (Q9UM73 19-1620): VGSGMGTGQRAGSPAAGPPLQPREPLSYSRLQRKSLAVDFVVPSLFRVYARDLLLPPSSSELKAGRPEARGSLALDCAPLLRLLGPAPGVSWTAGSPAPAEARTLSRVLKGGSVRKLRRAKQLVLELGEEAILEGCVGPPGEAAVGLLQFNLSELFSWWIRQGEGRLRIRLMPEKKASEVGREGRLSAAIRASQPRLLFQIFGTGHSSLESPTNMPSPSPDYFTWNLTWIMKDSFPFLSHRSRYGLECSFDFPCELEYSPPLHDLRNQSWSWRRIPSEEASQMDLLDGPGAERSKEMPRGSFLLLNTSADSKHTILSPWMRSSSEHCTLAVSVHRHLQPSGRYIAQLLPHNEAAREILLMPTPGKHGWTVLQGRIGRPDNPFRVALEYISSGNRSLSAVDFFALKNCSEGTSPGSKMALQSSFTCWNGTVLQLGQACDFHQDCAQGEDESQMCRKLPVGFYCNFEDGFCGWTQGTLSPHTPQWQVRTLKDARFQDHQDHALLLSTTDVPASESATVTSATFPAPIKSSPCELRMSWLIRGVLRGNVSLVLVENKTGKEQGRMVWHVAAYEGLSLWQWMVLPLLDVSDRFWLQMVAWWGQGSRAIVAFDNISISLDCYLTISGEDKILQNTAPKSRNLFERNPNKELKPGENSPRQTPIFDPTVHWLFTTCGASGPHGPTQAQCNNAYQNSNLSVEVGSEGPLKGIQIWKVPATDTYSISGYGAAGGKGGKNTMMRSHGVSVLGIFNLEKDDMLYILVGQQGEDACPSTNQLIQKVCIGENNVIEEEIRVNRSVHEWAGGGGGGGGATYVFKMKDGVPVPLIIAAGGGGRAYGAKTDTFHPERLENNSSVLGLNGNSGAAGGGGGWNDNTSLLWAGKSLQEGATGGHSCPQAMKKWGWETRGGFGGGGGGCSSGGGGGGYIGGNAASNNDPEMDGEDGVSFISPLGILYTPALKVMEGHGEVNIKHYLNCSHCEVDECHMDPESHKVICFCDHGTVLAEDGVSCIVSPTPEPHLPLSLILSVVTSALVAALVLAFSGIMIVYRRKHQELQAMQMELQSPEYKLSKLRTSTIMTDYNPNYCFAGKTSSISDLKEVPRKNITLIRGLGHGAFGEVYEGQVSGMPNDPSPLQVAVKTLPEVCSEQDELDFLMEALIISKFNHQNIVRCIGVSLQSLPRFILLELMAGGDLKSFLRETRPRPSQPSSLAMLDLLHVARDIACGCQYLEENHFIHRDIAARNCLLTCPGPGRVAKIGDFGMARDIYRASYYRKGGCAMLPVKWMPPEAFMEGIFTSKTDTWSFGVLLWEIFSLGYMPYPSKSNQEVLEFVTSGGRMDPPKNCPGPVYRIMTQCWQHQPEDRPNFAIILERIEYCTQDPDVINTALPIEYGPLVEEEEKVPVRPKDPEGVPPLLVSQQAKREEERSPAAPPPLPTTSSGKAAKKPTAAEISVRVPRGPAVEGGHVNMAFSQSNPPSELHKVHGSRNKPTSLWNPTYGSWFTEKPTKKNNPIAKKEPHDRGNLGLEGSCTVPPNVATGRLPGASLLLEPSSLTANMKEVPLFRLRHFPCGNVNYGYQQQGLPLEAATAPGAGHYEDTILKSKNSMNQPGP
As to the kind of experiment: ALK Kinase Assay (ELISA/TRF, PLC-γ substrate). The format is biochemical. Particulars: read-out: ALK Potency. Summed up:
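PLC-γ coat 10 μg/mL in TBS; ALK 30 ng/ml added to start; 37° C, 15 min; Eu-N1 PT66 antibody detection (TRF). IC50: % inhibition vs log10 [cpd], variable-slope sigmoidal fit.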

Setting [3] is: JAK2 kinase inhibition, 0.2 μM ATP.
Setting [4] is: ALK kinase inhibition, 1 μM ATP.

pIC50: −log10 of the molar value. Like-named read-outs stand apart in the source and are kept apart here.

T1 sequence (O60674 whole entry): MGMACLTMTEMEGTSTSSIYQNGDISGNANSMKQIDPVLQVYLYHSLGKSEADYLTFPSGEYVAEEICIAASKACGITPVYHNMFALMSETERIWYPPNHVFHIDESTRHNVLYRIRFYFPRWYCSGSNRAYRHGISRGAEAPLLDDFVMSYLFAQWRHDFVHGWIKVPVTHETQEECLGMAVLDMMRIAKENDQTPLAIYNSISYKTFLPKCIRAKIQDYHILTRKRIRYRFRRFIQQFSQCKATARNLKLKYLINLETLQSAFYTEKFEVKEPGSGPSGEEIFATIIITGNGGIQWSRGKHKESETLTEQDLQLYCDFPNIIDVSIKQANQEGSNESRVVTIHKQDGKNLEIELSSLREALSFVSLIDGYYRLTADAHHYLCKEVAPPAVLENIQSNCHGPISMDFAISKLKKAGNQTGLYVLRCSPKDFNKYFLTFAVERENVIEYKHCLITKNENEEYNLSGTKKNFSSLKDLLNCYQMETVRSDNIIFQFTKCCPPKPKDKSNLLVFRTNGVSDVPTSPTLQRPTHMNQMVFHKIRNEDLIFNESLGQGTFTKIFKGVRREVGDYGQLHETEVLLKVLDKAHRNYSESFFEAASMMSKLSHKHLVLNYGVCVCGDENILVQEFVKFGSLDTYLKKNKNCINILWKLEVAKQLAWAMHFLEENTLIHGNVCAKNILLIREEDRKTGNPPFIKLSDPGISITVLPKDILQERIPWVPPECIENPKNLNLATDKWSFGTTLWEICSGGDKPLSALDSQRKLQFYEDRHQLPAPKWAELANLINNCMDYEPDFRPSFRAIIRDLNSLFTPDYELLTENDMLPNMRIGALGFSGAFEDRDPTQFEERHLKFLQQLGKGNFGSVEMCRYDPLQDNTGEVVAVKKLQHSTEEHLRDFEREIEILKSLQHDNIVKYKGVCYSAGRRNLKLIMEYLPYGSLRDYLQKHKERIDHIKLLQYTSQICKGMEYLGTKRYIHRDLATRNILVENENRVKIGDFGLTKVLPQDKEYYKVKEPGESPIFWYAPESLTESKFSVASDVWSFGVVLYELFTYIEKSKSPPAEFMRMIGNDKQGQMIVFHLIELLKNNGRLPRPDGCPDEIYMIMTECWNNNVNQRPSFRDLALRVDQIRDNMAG

In the case of `O=S1(=O)CCCN1c1cccc(-c2ccc3cnc(Nc4ccc5nc[nH]c5c4)nn23)c1` [Example 1511, N-(1H-Benzimidazol-6-yl)-7-[3-(1,1-dioxido-1,2-thiazolidin-2-yl)phenyl]pyrrolo[2,14][1,2,4]triazin-2-amine], the values for the pIC50 in assay [1] (JAK2 Kinase Inhibition) and in assay [2] (ALK Kinase Inhibition) were more than 7.00 and 5.00 to 6.00, respectively.

Turning to `COc1cc(C2CCN(CC(=O)N(C)C)CC2)ccc1Nc1ncc2ccc(-c3ccccc3OC)n2n1` [Example 811, 2-(4-{3-Methoxy-4-[7-(2-methoxy-phenyl)-pyrrolo[2,1-f][1,2,4]triazin-2-ylamino]-phenyl}-piperidin-1-yl)-N,N-dimethyl-acetamide], the pIC50 was 6.00 to 7.00 in assay [1] (setting [3]) and more than 7.00 in assay [2] (setting [4]).

With `CS(=O)(=O)c1cccc(-c2ccc3cnc(Nc4ccc(C5=CCN(CC(N)=O)CC5)c(C(F)(F)F)c4)nn23)c1` [Example 951, 2-(4-{4-[7-(3-Methanesulfonyl-phenyl)-pyrrolo[2,1-f][1,2,4]triazin-2-ylamino]-2-trifluoromethyl-phenyl}-3,6-dihydro-2H pyridin-1-yl) acetamide], the pIC50 in assay [1] (setting [3]) was more than 7.00; in assay [2] (setting [4]), 6.00 to 7.00.

As for `CN(c1ccccc1-c1ccc2cnc(Nc3ccc(C4CN(CC(N)=O)C4)cc3)nn12)S(C)(=O)=O` [Example 586, 2-[3-(4-{7-[2-(Methanesulfonyl-methyl-amino)-phenyl]-pyrrolo[2,1-f][1,2,4]triazin-2-ylamino}-phenyl)-azetidin-1-yl]-acetamide], the pIC50 in assay [1] (setting [3]) and in assay [2] (setting [4]) was more than 7.00 throughout.

On to `COc1cc(N2CCC(N3CCCN(CCO)CC3)CC2)ccc1Nc1ncc2ccc(-c3ccccc3N(C)S(C)(=O)=O)n2n1` [Example 803, N-{2-[2-(4-{4-[4-(2-Hydroxy-ethyl)-[1,4]diazepan-1-yl]-piperidin-1-yl}-2-methoxy-phenylamino)-pyrrolo[2,1-f][1,2,4]triazin-7-yl]-phenyl}-N-methyl-methanesulfonamide], for which the pIC50 was 6.00 to 7.00 in assay [1] (setting [3]) and more than 7.00 in assay [2] (setting [4]).

For `Cn1cnc2ccc(Nc3ncc4ccc(-c5cccc(S(=O)(=O)NC(C)(C)C)c5)n4n3)cc21` [Example 1300, N-tert-Butyl-3-[2-(3-methyl-3H-benzimidazol-5-ylamino)-pyrrolo[2,1-f][1,2,4]triazin-7-yl]-benzenesulfonamide], the pIC50 in assay [1] (setting [3]) was more than 7.00; in assay [2] (setting [4]) it was 6.00 to 7.00.

With `CS(=O)(=O)c1ccc(-c2ccc3cnc(Nc4ccc5[nH]c(CN6CCOCC6)nc5c4)nn23)cc1` [Example 1541, [7-(4-Methanesulfonyl-phenyl)-pyrrolo[2,1-f][1,2,4]triazin-2-yl]-(2-morpholin-4-ylmethyl-1H-benzimidazol-5-yl)-amine], the pIC50 in assay [1] (JAK2 Kinase Inhibition) is more than 7.00; in assay [2] (ALK Kinase Inhibition), less than 5.00.

Regarding `CS(=O)(=O)Nc1cccc(-c2ccc3cnc(Nc4ccc(CN5CCS(=O)(=O)CC5)cc4)nn23)c1` [Example 1052, N-(3-{2-[4-(1,1-Dioxo-1 $1(6)-thiomorpholin-4-ylmethyl)-phenylamino]-pyrrolo[2,1-f][1,2,4]triazin-7-yl}-phenyl)-methanesulfonamide], the pIC50 in assay [1] (setting [3]) is more than 7.00; in assay [2] (setting [4]) it was 6.00 to 7.00.

`COc1ccccc1-c1ccc2cnc(Nc3ccn(CCN4CCOCC4)n3)nn12` [Example 1183, [7-(2-Methoxy-phenyl)-pyrrolo[2,1-f][1,2,4]triazin-2-yl]-[1-(2-morpholin-4-yl-ethyl)-1H-pyrazol-3-yl]-amine]: the pIC50 is more than 7.00 in assay [1] (setting [3]) and 6.00 to 7.00 in assay [2] (setting [4]).

Turning to `Cc1cc(-c2ccc(S(C)(=O)=O)cc2)n2nc(Nc3ccc(N4CCOCC4)cc3)ncc12` [Example 107, [7-(4-Methanesulfonyl-phenyl)-5-methyl-pyrrolo[2,1-f][1,2,4]triazin-2-yl]-(4-morpholin-4-yl-phenyl)-amine], the pIC50 in assay [1] (JAK2 Kinase Inhibition) is more than 7.00; in assay [2] (ALK Kinase Inhibition) it was 6.00 to 7.00.

For `COc1cc(C2CCN(CC(=O)N(C)C)CC2)ccc1Nc1ncc2ccc(-c3ccccc3N(C)S(C)(=O)=O)n2n1` [Example 810, 2-[4-(4-{7-[2-(Methanesulfonyl-methyl-amino)-phenyl]-pyrrolo[2,1-f][1,2,4]triazin-2-ylamino}-3-methoxy-phenyl)-piperidin-1-yl]-N,N-dimethyl-acetamide], the pIC50 in assay [1] (setting [3]) is 6.00 to 7.00; in assay [2] (setting [4]) it was more than 7.00.

With `CC(C)C(=O)Nc1cccc(Nc2ncc3ccc(-c4cccc(S(=O)(=O)NC(C)(C)C)c4)n3n2)c1` [Example 1385, N-{3-[7-(3-tert-Butylsulfamoyl-phenyl)-pyrrolo[2,1-f][1,2,4]triazin-2-ylamino]-phenyl}-isobutyramide], the pIC50 is more than 7.00 in assay [1] (JAK2 Kinase Inhibition) and 5.00 to 6.00 in assay [2] (ALK Kinase Inhibition).

As for `CC(=O)Nc1cc(Nc2ncc3ccc(-c4cnn(C)c4)n3n2)ccc1Cl` [Example 962, N-{2-Chloro-5-[7-(1-methyl-1H-pyrazol-4-yl)pyrrolo[2,1f][1,2,4]triazin-2-ylamino]-phenyl}-acetamide], the figures for the pIC50 in assay [1] (setting [3]) and in assay [2] (setting [4]) were more than 7.00 and 5.00 to 6.00, respectively.

Take `COc1ccccc1-c1ccc2cnc(Nc3ccc4nc(C(C)(C)C)[nH]c4c3)nn12` [Example 1352, (2-tert-Butyl-3H-benzimidazol-5-yl)-[7-(2-methoxy-phenyl)-pyrrolo[2,1-f][1,2,4]triazin-2-yl]-amine]: the pIC50 in assay [1] (setting [3]) is more than 7.00; in assay [2] (setting [4]), 6.00 to 7.00.

Take `CS(=O)(=O)c1cccc(-c2ccc3cnc(Nc4ccc(Cl)c(OC[C@@H]5CCCN5)c4)nn23)c1` [Example 1020, [4-Chloro-3-((S)-1-pyrrolidin-2-ylmethoxy)-phenyl]-[7-(3-methanesulfonyl-phenyl)-pyrrolo[2,1-f][1,2,4]triazin-2-yl]-amine]: the pIC50 was more than 7.00 in assay [1] (setting [3]) and 5.00 to 6.00 in assay [2] (setting [4]).

For the compound `CN(C)S(=O)(=O)c1ccc(-c2ccc3cnc(Nc4ccc(N5CCCCC5)cc4)nn23)cc1` [Example 86, N,N-Dimethyl-4-[2-(4-piperidin-1-yl-phenylamino)-pyrrolo[2,1-f][1,2,4]triazin-7-yl]-benzenesulfonamide], the pIC50 in assay [1] (JAK2 Kinase Inhibition) was more than 7.00; in assay [2] (ALK Kinase Inhibition), less than 5.00.

As for `COc1ccccc1-c1ccc2cnc(Nc3ccc4c(c3)C(NC(=O)OC(C)(C)C)C(O)C4)nn12` (stereo not shown) [Example 673, {2-Hydroxy-6-[7-(2-methoxy-phenyl)-pyrrolo[2,1-f][1,2,4]triazin-2-ylamino]-indan-1-yl}-carbamic acid tert-butyl ester], the pIC50 is more than 7.00 in assay [1] (setting [3]) and 6.00 to 7.00 in assay [2] (setting [4]).

In the case of `COc1cc(C2CCN(C(=O)C(C)(C)N)CC2)ccc1Nc1ncc2ccc(-c3ccccc3OC)n2n1` [Example 821, 2-Amino-1-(4-{3-methoxy-4-[7-(2-methoxy-phenyl)-pyrrolo[2,1-f][1,2,4]triazin-2-ylamino]-phenyl}-piperidin-1-yl)-2-methyl-propan-1-one], the pIC50 in assay [1] (setting [3]) was 6.00 to 7.00; in assay [2] (setting [4]) it was more than 7.00.

Regarding `CCN1CCOC(c2ccc(Nc3ncc4ccc(-c5cccc(S(=O)(=O)NC(C)(C)C)c5)n4n3)cc2)C1` (stereo not shown) [Example 653, N-tert-Butyl-3-{2-[4-(4-ethyl-morpholin-2-yl)-phenylamino]-pyrrolo[2,1-f][1,2,4]triazin-7-yl}benzenesulfonamide], the figures for the pIC50 in assay [1] (setting [3]) and in assay [2] (setting [4]) were more than 7.00 and 6.00 to 7.00, respectively.

On to `OCC1CCN(c2ccc(Nc3ncc4ccc(-c5cccc(Cl)c5)n4n3)cc2)CC1` [Example 1133, (1-{4-[7-(3-Chloro-phenyl)-pyrrolo[2,1-f][1,2,4]triazin-2-ylamino]-phenyl}-piperidin-4-yl)-methanol], for which the pIC50 in assay [1] (setting [3]) was more than 7.00; in assay [2] (setting [4]), 6.00 to 7.00.

As for `CN1CCN(C(=O)C2CCN(c3ccc(Nc4ncc5ccc(-c6ccc(S(C)(=O)=O)cc6)n5n4)cc3)CC2)CC1` [Example 445, (1-{4-[7-(4-Methanesulfonyl-phenyl)-pyrrolo[2,1-f][1,2,4]triazin-2-ylamino]-phenyl}-piperidin-4-yl)-(4-methyl-piperazin-1-yl)-methanone], the results for the pIC50 in assay [1] (JAK2 Kinase Inhibition) and in assay [2] (ALK Kinase Inhibition) were more than 7.00 and 6.00 to 7.00, respectively.

As to `CC(C)(C)NS(=O)(=O)c1cccc(-c2ccc3cnc(Nc4ccc(C5(C#N)CCN(CC(N)=O)CC5)cc4)nn23)c1` [Example 1544, 2-(4-{4-[7-(3-tert-Butylsulfamoyl-phenyl)-pyrrolo[2,1-f][1,2,4]triazin-2-ylamino]-phenyl}-4-cyano-piperidin-1-yl)-acetamide], the pIC50 was more than 7.00 in assay [1] (JAK2 Kinase Inhibition) and 6.00 to 7.00 in assay [2] (ALK Kinase Inhibition).

Consider `CS(=O)(=O)c1cccc(-c2ccc3cnc(Nc4ccc(N5CCN(CCO)CC5)cc4)nn23)c1` [Example 95, 2-(4-{4-[7-(3-Methanesulfonyl-phenyl)-pyrrolo[2,1-f][1,2,4]triazin-2-ylamino]-phenyl}-piperazin-1-yl)-ethanol], for which the pIC50 in assay [1] (JAK2 Kinase Inhibition) was more than 7.00; in assay [2] (ALK Kinase Inhibition) it was 6.00 to 7.00.

As for `COc1cc2c(cc1Nc1ncc3ccc(-c4cccc(S(=O)(=O)NC(C)(C)C)c4)n3n1)CCN(C[C@H](C)O)CC2` [Example 701], the pIC50 was 6.00 to 7.00 in assay [1] (setting [3]) and more than 7.00 in assay [2] (setting [4]).

With `COc1cc(C2CCN(CC(N)=O)CC2)ccc1Nc1ncc2ccc(-c3ccccc3C#N)n2n1` [Example 517, 2-(4-{4-[7-(2-Cyano-phenyl)-pyrrolo[2,1-f][1,2,4]triazin-2-ylamino]-3-methoxy-phenyl}-piperidin-1-yl)-acetamide], the values for the pIC50 in assay [1] (setting [3]) and in assay [2] (setting [4]) were 6.00 to 7.00 and more than 7.00, respectively.

Consider `CN(c1ccccc1-c1ccc2cnc(Nc3ccc(N4CCOCC4)cn3)nn12)S(C)(=O)=O` [Example 1176, N-Methyl-N-{2-[2-(5-morpholin-4-yl-pyridin-2-ylamino)-pyrrolo[2,1-f][1,2,4]triazin-7-yl]-phenyl}-methanesulfonamide], for which the pIC50 in assay [1] (setting [3]) is more than 7.00; in assay [2] (setting [4]), 5.00 to 6.00.
